Measured values from PMC8402547, “In Vitro and In Vivo Analysis of Ochratoxin A-Derived Glucuronides and Mercapturic Acids as Biomarkers of Exposure” (Toxins, 2021).

Experiments:
Assay type in all cases: in vivo, male F344/N rats
[1] = 14-day rat study: 24 h urinary excretion of OTA and OTA-glucuronides, LC–MS/MS with and without β-glucuronidase hydrolysis; settings: for Urinary excretion / Urinary excretion, fraction of the administered dose: 2 mg OTA/kg bw oral, 5 d/week; for Urinary excretion, fraction of the administered dose: 24 h urine
Protocol: (§1) 14-day study: Male F344 rats (170–190 g) were purchased from Charles-River Laboratories, Sulzfeld, Germany. Animals had free access to water and standard diet (Altromin) and were kept under standard conditions (12 h day/night cycle, temperature 21–23 °C, humidity 45–55%). Rats were transferred to metabolic cages (Tecniplast Metabolic Cage—Rats Over 300 g; Tecniplast, Italy) for collection of urine 3 days prior to dosing. Animals were administered OTA dissolved in corn oil by oral gavage at 0, 0.25, 0.5, 1.0 and 2.0 mg/kg bw for 2 weeks (5 days per week). Urine was collected every 12 h on day 1 of treatment and every 24 h thereafter on ice, aliquoted and stored at −20 °C until further analysis.
(§2) Duplicate analysis of OTA in urine samples with and without enzymatic hydrolysis allowed for indirect measurement of glucuronides, whereby an increase in the concentration of OTA in the samples incubated with enzyme compared to those without enzymatic treatment reflected the hydrolyzed glucuronides. Aliquots of rat urine (125 µL) were mixed with 0.1 M sodium acetate (104 µL; pH = 5). For analysis of the concentration of OTA without enzymatic hydrolysis, an aliquot (30 µL) of this solution was removed and mixed with 7 µL acetonitrile. The remaining solution (199 µL) was incubated with β-glucuronidase (1.65 µL; <100,000 units/mL) at 37 °C for 1 h. Hydrolysis was terminated by addition of ice-cold acetonitrile (50 µL) and centrifugation (15 min., 4 °C, 20,000× g). To 98 µL supernatant, 2 µL isotopically labeled ^13C20-OTA in acetonitrile (14-day study: 5 µg/mL; 90-day study: 1 µg/mL) was added as an internal standard. For analysis, 10 µL of each sample were injected into the LC–MS system and analyzed using the method described below. A calibration curve was prepared from solutions of OTA and the isotopically labeled ^13C20-OTA internal standard in acetonitrile and subsequent dilution with urine of a control animal.
(§3) LC–MS/MS analyses were performed on an Agilent 1100 series LC coupled to an API 2000/Q-Trap mass spectrometer (Applied Biosystems/MDS Sciex, Concord, Canada). Samples were injected into the LC–MS/MS system through an Agilent 1100 series autosampler. Separations were carried out on a ReproSil-Pur C18 AQ column (2 mm × 150 mm, 5 µm; Dr. Maisch; Ammerbuch, Germany). Gradient elution of OTA-derived metabolites was carried out with water + 0.1% formic acid (solvent A) and acetonitrile (solvent B). Initially, solvent A was held isocratic for 5 min at 100%, followed by a linear gradient to 95% B in 5 min. These conditions were held for further 5 min. Within 1 min, the gradient decreased linearly to 0% B and remained at initial conditions until the end of analysis (30 min). A flow rate of 0.2 mL/min was used. For each run, 10 µL of the respective sample were injected by the autosampler.
(§4) The API 2000/Q-Trap mass spectrometer was operated with a Turbo Ion Spray source in negative ion mode with a voltage of −4000 V. Spectral data were recorded with N2 as the heater gas at 450 °C and as the collision gas (CAD = −2) in multiple reaction monitoring mode (MRM).

[2] = 90-day rat study: 24 h urinary excretion of OTA and OTA-glucuronides, LC–MS/MS with and without β-glucuronidase hydrolysis; settings: for Urinary excretion, fraction of the administered dose / Urinary excretion: 5 days/week; for Urinary excretion, fraction of the administered dose: 24 h urine
Protocol: (§5) 90-day study: Male F344/N rats (6–7 weeks old) were purchased from Harlan-Winkelmann, Borchen, Germany. Animals were housed in groups of 5 in Macrolon type-4 cages and allowed free access to pelleted standard rat maintenance diet (SSNIFF, Soest, Germany) and tap water. After a week of acclimatization, rats (n = 5/dose) were exposed to OTA dissolved in corn oil by oral gavage at doses of 0, 21, 70 or 210 µg/kg bw for 2, 4 or 13 weeks (5 days per week). For urine collection, animals were transferred into metabolic cages (Tecniplast Metabolic Cage—Rats Over 300 g; Tecniplast, Italy) 48 h prior to necropsy and fasted for 20 h but allowed free access to tap water. Urine was collected for 24 h on ice, aliquoted and stored at −20 °C until further analysis.
as §2, §3, §4

[3] = Direct LC–MS/MS analysis of OTA metabolites in urine of OTA-treated rats; settings: OTA up to 2 mg/kg bw, negative ionization mode
Protocol: Archived urine samples from previous repeated dose oral toxicity studies on OTA in male F344/N rats were used. The studies were performed according to national animal welfare regulations after authorization by the local authorities (Regierung von Unterfranken, AZ 621-2531.01-9/98 and AZ 54-2531.01-59/05).
as §1, §5
Urine samples were diluted with acetonitrile (2:1), vortexed and cleared via centrifugation (4 °C, 15 min., 2000× g) to precipitate proteins. Of the resulting supernatant, 10 µL were injected into the LC–MS system and analyzed using the method described below.
as §3, §4
In addition to MRM, constant neutral loss of 129 amu in the negative ion mode based on the characteristic fragmentation pattern of mercapturic acids was used to screen for N-acetyl-cysteine conjugates of OTA. Furthermore, constant neutral loss of 176 amu in positive ion mode based on the fragmentation pattern of glucuronic acid conjugates was used to screen for OTA glucuronides.

[4] = 4 weeks treatment, OTA 210 μg/kg bw per day oral, n = 1

SMILES: C[C@@H]1Cc2c(Cl)cc(C(=O)N[C@@H](Cc3ccccc3)C(=O)O)c(O)c2C(=O)O1 [OTA, Ochratoxin A]
- Urinary excretion ([1]; animal 2, day 3 of treatment): 15.3 nmol/24 h
- Urinary excretion, fraction of the administered dose ([1]; animal 2, day 3 of treatment): 1.8%
- Urinary excretion ([1]; animal 2, day 5 of treatment): 40.3 nmol/24 h
- Urinary excretion, fraction of the administered dose ([1]; animal 2, day 5 of treatment): 4.7%
- Urinary excretion ([1]; animal 2, day 7 of treatment): 35.4 nmol/24 h
- Urinary excretion, fraction of the administered dose ([1]; animal 2, day 7 of treatment): 4.1%
- Urinary excretion ([1]; animal 2, day 9 of treatment): 32.9 nmol/24 h
- Urinary excretion, fraction of the administered dose ([1]; animal 2, day 9 of treatment): 3.7%
- Urinary excretion ([1]; animal 2, day 11 of treatment): 40.9 nmol/24 h
- Urinary excretion, fraction of the administered dose ([1]; animal 2, day 11 of treatment): 4.6%
- Urinary excretion ([1]; animal 2, day 13 of treatment): 21.0 nmol/24 h
- Urinary excretion, fraction of the administered dose ([1]; animal 2, day 13 of treatment): 2.2%
- Urinary excretion ([1]; animal 3, day 3 of treatment): 4.4 nmol/24 h
- Urinary excretion, fraction of the administered dose ([1]; animal 3, day 3 of treatment): 0.5%
- Urinary excretion ([1]; animal 3, day 5 of treatment): 30.9 nmol/24 h
- Urinary excretion, fraction of the administered dose ([1]; animal 3, day 5 of treatment): 3.5%
- Urinary excretion ([1]; animal 3, day 7 of treatment): 62.4 nmol/24 h
- Urinary excretion, fraction of the administered dose ([1]; animal 3, day 7 of treatment): 6.9%
- Urinary excretion ([1]; animal 3, day 9 of treatment): 17.8 nmol/24 h
- Urinary excretion, fraction of the administered dose ([1]; animal 3, day 9 of treatment): 2.0%
- Urinary excretion ([1]; animal 3, day 11 of treatment): 33.6 nmol/24 h
- Urinary excretion, fraction of the administered dose ([1]; animal 3, day 11 of treatment): 3.7%
- Urinary excretion ([1]; animal 3, day 13 of treatment): 48.1 nmol/24 h
- Urinary excretion, fraction of the administered dose ([1]; animal 3, day 13 of treatment): 5.3%
- 24 h urinary excretion, % of the daily administered dose ([1]; range over the course of the study, OTA 2 mg/kg bw for 2 weeks (5 days/week)): 0.5–6.9%
- Urinary excretion, fraction of the administered dose ([2]; 2 weeks treatment, OTA 21 μg/kg bw per day oral): 1.9%
- Urinary excretion ([2]; 2 weeks treatment, OTA 21 μg/kg bw per day oral, mean ± SD): 0.22 ± 0.03 nmol/24 h
- Urinary excretion, fraction of the administered dose ([2]; 2 weeks treatment, OTA 70 μg/kg bw per day oral): 0.8%
- Urinary excretion ([2]; 2 weeks treatment, OTA 70 μg/kg bw per day oral, mean ± SD): 0.32 ± 0.12 nmol/24 h
- Urinary excretion, fraction of the administered dose ([2]; 2 weeks treatment, OTA 210 μg/kg bw per day oral): 1.2%
- Urinary excretion ([2]; 2 weeks treatment, OTA 210 μg/kg bw per day oral, mean ± SD): 1.35 ± 0.36 nmol/24 h
- Urinary excretion, fraction of the administered dose ([2]; 4 weeks treatment, OTA 70 μg/kg bw per day oral): 0.9%
- Urinary excretion ([2]; 4 weeks treatment, OTA 70 μg/kg bw per day oral, mean ± SD): 0.51 ± 0.09 nmol/24 h
- Urinary excretion, fraction of the administered dose [2, 4]: 4.6%
- Urinary excretion [2, 4]: 5.86 nmol/24 h
- Urinary excretion, fraction of the administered dose ([2]; 13 weeks treatment, OTA 21 μg/kg bw per day oral): 1.1%
- Urinary excretion ([2]; 13 weeks treatment, OTA 21 μg/kg bw per day oral, mean ± SD): 0.18 ± 0.07 nmol/24 h
- Urinary excretion, fraction of the administered dose ([2]; 13 weeks treatment, OTA 70 μg/kg bw per day oral): 1.9%
- Urinary excretion ([2]; 13 weeks treatment, OTA 70 μg/kg bw per day oral, mean ± SD): 0.97 ± 0.36 nmol/24 h
- Urinary excretion, fraction of the administered dose ([2]; 13 weeks treatment, OTA 210 μg/kg bw per day oral): 2.5%
- Urinary excretion ([2]; 13 weeks treatment, OTA 210 μg/kg bw per day oral, mean ± SD): 3.88 ± 1.50 nmol/24 h
- Fraction of the administered dose excreted in urine ([2]; range over 90-day study, OTA 21, 70 and 210 µg/kg (5 days/week)): 0.8 to 4.6%
- Detection in urine of OTA-treated rats by direct LC–MS/MS (MRM) [3]: consistently found
